Holding throughout (test): NCI-60 cell line screen, 48 h
Experiment [1] concerns IGROV1 ovarian.
For experiment [2], the system named is KM12 colon.
The subject of experiment [3] is MALME-3M melanoma.
Experiment [4] deals with MDA-MB-231 breast.
For experiment [5], the system named is NCI-H522 lung.
Experiment [6] concerns RPMI-8226 leukemia.
Experiment [7] relates to SF-539 CNS.
Experiment [8] relates to SK-MEL-2 melanoma.
Experiment [9] concerns SNB-75 CNS.
Experiment [10] concerns SW-620 colon.
For experiment [11], the system named is T-47D breast.
Experiment [12] deals with UACC-62 melanoma.

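Tested at 5 concentrations; 48 h exposure; 96-well plates; endpoints linearly interpolated, else capped at highest concentration. Definition used: TGI = concentration required for complete inhibition of growth.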 Some results are limits rather than exact numbers.

Regarding `CCC1OC2C(CC=C(C)C)=C3OC(C)(O)C(C)(CC)C(OC(C)=O)C3=C3OC(=O)C=C1C32` (configuration not stated), the TGI is 69.6 µM in [1]; 50 µM in experiment [2]; 49.3 µM in experiment [3]; 36.7 µM in [4]; 38.1 µM in experiment [5]; > 100 µM in experiment [6]. In addition, the TGI is 40.9 µM in [7]; 41.8 µM in experiment [8]; 52.1 µM in experiment [9]; > 100 µM in [10]; > 100 µM in [11]; 42.1 µM in [12].
With `CC(=O)Oc1ccc(/C=C/C(=O)OCCCOC(=O)/C=C/c2ccc(OC(C)=O)c(OC(C)=O)c2)cc1OC(C)=O`, the TGI in [1], in [2], in experiment [3], in experiment [4], in experiment [5] and in [6] was > 100 µM throughout. The TGI in experiment [7], in experiment [8], in [9], in experiment [10], in experiment [11] and in [12] was > 100 µM throughout.
In the case of `C[C@]12C[C@@H](OC(=O)[C@]1(C)O)[C@@H]([C@]1(O)CC[C@H]3[C@@H]4C[C@H]5O[C@]56C[C@H]5O[C@H]5C(=O)[C@]6(C)[C@H]4CC[C@@]31C)C2`, the TGI in [1] was > 50 µM; in [2] it was > 50 µM; in [3] it was > 5 µM; in experiment [4], > 50 µM; in experiment [5], > 50 µM; in [6], > 50 µM. Moreover, the TGI in experiment [7], in [8], in experiment [9], in experiment [10], in experiment [11] and in [12] was > 50 µM throughout.
In the case of `Nc1ccc2c(c1)nc1n2C(c2c(F)cccc2F)SC1` (configuration not stated), the TGI in experiment [1], in experiment [2], in [3], in experiment [4], in experiment [5] and in experiment [6] was > 100 µM each time. The TGI in experiment [7], in [8], in [9], in experiment [10], in experiment [11] and in experiment [12] was > 100 µM throughout.
For `CCOC(=O)N1N=C(/C(C)=N/OC)C(C)S1=O` (configuration not stated), the TGI in [1], in experiment [2], in experiment [3], in [4], in experiment [5] and in experiment [6] was > 100 µM throughout. Moreover, the TGI in experiment [7], in experiment [8], in [9], in [10], in experiment [11] and in [12] was > 100 µM each time.
With `Cc1cc(N(CCC#N)CCC#N)ccc1/C(N=Nc1cccc(Cl)c1)=N/NC(=O)c1cc(Cl)ccc1O`, the TGI in experiment [1] came out at 10.2 µM; in experiment [2] it was 35.4 µM; in experiment [3], 28.1 µM; in [4] it was 49 µM; in experiment [5] it was 49 µM; in experiment [6], 63.5 µM. The TGI in [7] was > 100 µM; in experiment [8], 36.1 µM; in experiment [9] it was 42.1 µM; in experiment [10], > 100 µM; in experiment [11] it was 60.6 µM; in [12], 28.9 µM.
Consider `CCC(=O)C(CCN1CCC2(CCCc3ccccc32)CC1)(c1ccccc1)c1ccccc1`, for which the TGI was found to be 10.3 µM in [1]; 4.64 µM in [2]; 3.76 µM in experiment [3]; 5.78 µM in [4]; 7.14 µM in experiment [5]; 2.35 µM in [6]. For the same compound, the TGI was 7.3 µM in experiment [7]; 4.34 µM in experiment [8]; > 27.2 µM in experiment [9]; 12.9 µM in experiment [10]; 10.2 µM in experiment [11]; 10.7 µM in experiment [12].
As to `CSC(=S)Nc1cccc(C)n1`, the TGI in experiment [1], in experiment [2], in [3], in experiment [4], in experiment [5] and in experiment [6] was > 100 µM each time. Further, the TGI in [7], in [8], in experiment [9], in [10], in experiment [11] and in experiment [12] was > 100 µM throughout.
`CC(=O)NC1C(OCc2ccccc2)OC(CO)C(O)C1OC(C)C(=O)NC(C)C(=O)NC(CCC(=O)NCCCCNc1c2ccccc2nc2cccc([N+](=O)[O-])c12)C(N)=O` (configuration not stated): the TGI in [1] came out at 0.612 µM; in experiment [2] it was 0.692 µM; in experiment [3], 0.131 µM; in experiment [4] it was 0.118 µM; in [5], 0.286 µM; in experiment [6], 0.0629 µM. The TGI in experiment [7] came out at 0.264 µM; in [8], 0.393 µM; in [9], 0.569 µM; in experiment [10], 0.0785 µM; in experiment [11] it was 0.961 µM; in experiment [12], 0.115 µM.
On to `CCOC(=O)C1(C(=O)OCC)[C@@H](c2ccccc2)C2=NO[C@@H]3CCC[C@H]1[C@H]23`, for which the TGI in [1], in experiment [2], in experiment [3], in [4], in experiment [5] and in experiment [6] was > 100 µM in each case. Further, the TGI in experiment [7], in experiment [8], in experiment [9], in experiment [10], in [11] and in experiment [12] was > 100 µM each time.
As for `Fc1ccc(N2C(=S)SC(=Nc3ccccc3)C2=Nc2ccccc2)cc1`, the TGI in experiment [1], in [2], in experiment [3], in experiment [4], in experiment [5] and in [6] was > 100 µM in each case. In addition, the TGI in [7], in experiment [8], in [9], in experiment [10], in experiment [11] and in experiment [12] was > 100 µM throughout.

The record behind these values is PubChem BioAssay (NCI).
